Test results: ChEMBL document CHEMBL1129920, “Cyclic homopentapeptides 2. Synthetic modifications of viomycin” (1997)
In brackets after ≈: the same amount, converted by molar mass.

Columns and labels:
Type in all cases: functional
[1] = system: Escherichia coli; assay: In vitro inhibition of Escherichia coli growth.
[2] = system: Pasteurella multocida; assay: In vitro inhibition of Pasteurella multocida growth.
[3] = system: Staphylococcus aureus; assay: In vitro inhibition of MRSA growth.

| MIC [1] [µg/mL] | MIC [2] [µg/mL] | MIC [3] [µg/mL] | Structure (SMILES) |
| --- | --- | --- | --- |
| 25 (≈ 28.6 µM) | 12.5 (≈ 14.3 µM) |  | CC(C)(C)c1ccc(COC(=O)NC2CC([C@H]3NC(=O)/C(=C/NC(N)=O)NC(=O)[C@@H](CO)NC(=O)[C@@H](CO)NC(=O)C(NC(=O)C[C@@H](N)CCCN)CNC3=O)N=C(N)N2)cc1 (some centres undefined) |
| 12.5 (≈ 13.2 µM) | 3.13 (≈ 3.31 µM) | 12.5 (≈ 13.2 µM) | NCCC[C@H](N)CC(=O)NC1CNC(=O)[C@@H](C2CC(NC(=O)OCc3ccc(I)cc3)N=C(N)N2)NC(=O)/C(=C/NC(N)=O)NC(=O)[C@@H](CO)NC(=O)[C@@H](CO)NC1=O (some centres undefined) |
| 50 (≈ 61.1 µM) | 25 (≈ 30.5 µM) |  | NCCC[C@H](N)CC(=O)NC1CNC(=O)[C@@H](C2CC(NC(=O)OCc3ccccc3)N=C(N)N2)NC(=O)/C(=C/NC(N)=O)NC(=O)[C@@H](CO)NC(=O)[C@@H](CO)NC1=O (some centres undefined) |
| > 200 | > 200 |  | COc1ccc(C2CC([C@H]3NC(=O)/C(=C/NC(N)=O)NC(=O)[C@@H](CO)NC(=O)[C@@H](CO)NC(=O)C(NC(=O)C[C@@H](N)CCCN)CNC3=O)N=C(N)N2)cc1OC (some centres undefined) |
| 6.25 (≈ 6.14 µM) | 6.25 (≈ 6.14 µM) | 25 (≈ 24.6 µM) | NCCC[C@H](N)CC(=O)NC1CNC(=O)[C@@H](C2CC(NC(=O)Nc3ccc(Cl)c(Cl)c3)N=C(N)N2)NC(=O)/C(=C/NC(=O)Nc2ccc(Cl)c(Cl)c2)NC(=O)[C@@H](CO)NC(=O)[C@@H](CO)NC1=O (some centres undefined) |
| 50 (≈ 60.2 µM) | 3.12 (≈ 3.76 µM) |  | NCCC[C@H](N)CC(=O)NC1CNC(=O)[C@@H](C2CC(O)N=C(N)N2)NC(=O)/C(=C/NC(=O)Nc2ccc(Cl)c(Cl)c2)NC(=O)[C@@H](CO)NC(=O)[C@@H](CO)NC1=O (some centres undefined) |
| 200 (≈ 257 µM) | 200 (≈ 257 µM) |  | NCCC[C@H](N)CC(=O)NC1CNC(=O)[C@@H](C2CC(c3ccc(O)c(O)c3)N=C(N)N2)NC(=O)/C(=C/NC(N)=O)NC(=O)[C@@H](CO)NC(=O)[C@@H](CO)NC1=O (some centres undefined) |
| 200 (≈ 238 µM) | 200 (≈ 238 µM) |  | Cc1ccc(S(=O)(=O)NC2CC([C@H]3NC(=O)/C(=C/NC(N)=O)NC(=O)[C@@H](CO)NC(=O)[C@@H](CO)NC(=O)C(NC(=O)C[C@@H](N)CCCN)CNC3=O)N=C(N)N2)cc1 (some centres undefined) |
|  |  | 12.5 (≈ 13.9 µM) | NCCC[C@H](N)CC(=O)NC1CNC(=O)[C@@H](C2CC(NC(=O)NCc3cccc(C4CCCCC4)c3)N=C(N)N2)NC(=O)/C(=C/NC(N)=O)NC(=O)[C@@H](CO)NC(=O)[C@@H](CO)NC1=O (some centres undefined) |
| 12.5 (≈ 13.5 µM) | 12.5 (≈ 13.5 µM) |  | NCCC[C@H](N)CC(=O)NC1CNC(=O)[C@@H](C2CC(c3ccc(O)c(O)c3)N=C(N)N2)NC(=O)/C(=C/NC(=O)Nc2ccc(Cl)c(Cl)c2)NC(=O)[C@@H](CO)NC(=O)[C@@H](CO)NC1=O (some centres undefined) |
| 6.25 (≈ 6.62 µM) | 6.25 (≈ 6.62 µM) | 12.5 (≈ 13.2 µM) | NCCC[C@H](N)CC(=O)NC1CNC(=O)[C@@H](C2CC(NC(=O)OCc3cccc(I)c3)N=C(N)N2)NC(=O)/C(=C/NC(N)=O)NC(=O)[C@@H](CO)NC(=O)[C@@H](CO)NC1=O (some centres undefined) |
| 12.5 (≈ 13.1 µM) | 12.5 (≈ 13.1 µM) |  | COc1ccc(C2CC([C@H]3NC(=O)/C(=C/NC(=O)Nc4ccc(Cl)c(Cl)c4)NC(=O)[C@@H](CO)NC(=O)[C@@H](CO)NC(=O)C(NC(=O)C[C@@H](N)CCCN)CNC3=O)N=C(N)N2)cc1OC (some centres undefined) |
| 25 (≈ 26.8 µM) | 3.12 (≈ 3.34 µM) |  | NCCC[C@H](N)CC(=O)NC1CNC(=O)[C@@H](C2CC(N[C@H](CS)C(=O)O)N=C(N)N2)NC(=O)/C(=C/NC(=O)Nc2ccc(Cl)c(Cl)c2)NC(=O)[C@@H](CO)NC(=O)[C@@H](CO)NC1=O (some centres undefined) |
| 6.25 (≈ 7.16 µM) | 1.56 (≈ 1.79 µM) | 25 (≈ 28.6 µM) | NCCC[C@H](N)CC(=O)NC1CNC(=O)[C@@H](C2CC(NC(=O)Nc3ccc(Cl)c(Cl)c3)N=C(N)N2)NC(=O)/C(=C/NC(N)=O)NC(=O)[C@@H](CO)NC(=O)[C@@H](CO)NC1=O (some centres undefined) |
| 12.5 (≈ 14.1 µM) | 3.13 (≈ 3.53 µM) |  | NCCC[C@H](N)CC(=O)NC1CNC(=O)[C@@H](C2CC(NC(=O)NCc3ccc(Cl)c(Cl)c3)N=C(N)N2)NC(=O)/C(=C/NC(N)=O)NC(=O)[C@@H](CO)NC(=O)[C@@H](CO)NC1=O (some centres undefined) |
| 200 (≈ 292 µM) | 200 (≈ 292 µM) |  | NCCC[C@H](N)CC(=O)NC1CNC(=O)[C@@H](C2CC(O)N=C(N)N2)NC(=O)/C(=C/NC(N)=O)NC(=O)[C@@H](CO)NC(=O)[C@@H](CO)NC1=O (some centres undefined) |
| 25 (≈ 28.2 µM) | 6.25 (≈ 7.04 µM) | 3.12 (≈ 3.51 µM) | NCCC[C@H](N)CC(=O)NC1CNC(=O)[C@@H](C2CC(NC(=O)OCc3ccc(Cl)c(Cl)c3)N=C(N)N2)NC(=O)/C(=C/NC(N)=O)NC(=O)[C@@H](CO)NC(=O)[C@@H](CO)NC1=O (some centres undefined) |
|  |  | 25 (≈ 27.8 µM) | NCCC[C@H](N)CC(=O)NC1CNC(=O)[C@@H](C2CC(NC(=O)NCc3ccc(C4CCCCC4)cc3)N=C(N)N2)NC(=O)/C(=C/NC(N)=O)NC(=O)[C@@H](CO)NC(=O)[C@@H](CO)NC1=O (some centres undefined) |
| 25 (≈ 28.1 µM) | 3.12 (≈ 3.51 µM) |  | NCCC[C@H](N)CC(=O)NC1CNC(=O)[C@@H](C2CC(SCCN)NC(N)=N2)NC(=O)/C(=C/NC(=O)Nc2ccc(Cl)c(Cl)c2)NC(=O)[C@@H](CO)NC(=O)[C@@H](CO)NC1=O (some centres undefined) |
| 25 (≈ 26.4 µM) | 3.12 (≈ 3.29 µM) |  | CSC[C@@H](NC1CC([C@H]2NC(=O)/C(=C/NC(=O)Nc3ccc(Cl)c(Cl)c3)NC(=O)[C@@H](CO)NC(=O)[C@@H](CO)NC(=O)C(NC(=O)C[C@@H](N)CCCN)CNC2=O)N=C(N)N1)C(=O)O (some centres undefined) |
| 25 (≈ 28.2 µM) | 3.13 (≈ 3.53 µM) | 12.5 (≈ 14.1 µM) | NCCC[C@H](N)CC(=O)NC1CNC(=O)[C@@H](C2CC(NC(=O)OCc3cccc(Cl)c3Cl)N=C(N)N2)NC(=O)/C(=C/NC(N)=O)NC(=O)[C@@H](CO)NC(=O)[C@@H](CO)NC1=O (some centres undefined) |
| 3.13 (≈ 3.03 µM) | 6.25 (≈ 6.05 µM) | 12.5 (≈ 12.1 µM) | NCCC[C@H](N)CC(=O)NC1CNC(=O)[C@@H](C2CC(NC(=O)OCc3ccc(Cl)cc3Cl)N=C(N)N2)NC(=O)/C(=C/NC(=O)Nc2ccc(Cl)c(Cl)c2)NC(=O)[C@@H](CO)NC(=O)[C@@H](CO)NC1=O (some centres undefined) |
| 50 (≈ 51.2 µM) | 6.25 (≈ 6.4 µM) |  | CC(=O)N(C1CC([C@H]2NC(=O)/C(=C/NC(=O)Nc3ccc(Cl)c(Cl)c3)NC(=O)[C@@H](CO)NC(=O)[C@@H](CO)NC(=O)C(NC(=O)C[C@@H](N)CCCN)CNC2=O)N=C(N)N1)[C@H](CS)C(=O)O (some centres undefined) |
| 12.5 (≈ 14.3 µM) | 3.13 (≈ 3.59 µM) |  | NCCC[C@H](N)CC(=O)NC1CNC(=O)[C@@H](C2CC(NC(=O)OCc3ccc(Cl)cc3F)N=C(N)N2)NC(=O)/C(=C/NC(N)=O)NC(=O)[C@@H](CO)NC(=O)[C@@H](CO)NC1=O (some centres undefined) |

| Structure (SMILES) | MIC [1] [µg/mL] | MIC [2] [µg/mL] | MIC [3] [µg/mL] |
| --- | --- | --- | --- |
| CN[C@H](CC(C)C)C(=O)N[C@H]1C(=O)N[C@@H](CC(N)=O)C(=O)N[C@H]2C(=O)N[C@H]3C(=O)N[C@H](C(=O)N[C@H](C(=O)O)c4cc(O)cc(O)c4-c4cc3ccc4O)[C@H](O)c3ccc(c(Cl)c3)Oc3cc2cc(c3O[C@@H]2O[C@H](CO)[C@@H](O)[C@H](O)[C@H]2O[C@H]2C[C@](C)(N)[C@H](O)[C@H](C)O2)Oc2ccc(cc2Cl)[C@H]1O [VANCOMYCIN] |  |  | 0.78 (≈ 0.538 µM) |
